Results published in US12186435B2, “Sol-gel/hydrogel therapeutic delivery system and methods thereof” (ALBERT EINSTEIN COLLEGE OF MEDICINE, priority 2017, dated 2025).
“Also recorded” adds a separate entry of the source.

Experiments:
[1] = Evans Blue release from particles in water; format: physicochemical; settings: for release from amine (APTS) doped particles: hydrogel doped with amine groups
Experimental: FIGS. 18A-18B. Curcumin (A) and (B) Evans Blue APTS doped gels. The gels were doped with 0.3% APTS. Rate of condensation changed by mM NaOH concentration (75, 60, 30, 12) added prior to condensation step. Increasing gel times for decreasing amount of added NaOH: (2 mins, 30 mins, 15 hours, 1.5 days: 75, 60, 30, 12 mM NaOH). Curcumin release in ethanol; Evans blue release in water. Both plots from top to bottom, respectively, at left side of plots: 75 mM, 60 mM, 30 mM and 12 mM.
Amines are incorporated by mixing hydrolyzed APTS with hydrolyzed TMOS. The resulting sol-gel monolith is loaded with the water soluble dye Evans Blue which has four negatively charged groups.

[2] = Release of NACSNO and GSNO from particles into aqueous buffer; format: physicochemical; settings: for release from original rapid gelation platform: deliverable added before condensation, aqueous buffer
[3] = in methanol
[4] = Release of fluorescent labeled lipids from Br1 particles, with or without 3% octyl-TMOS doping; format: physicochemical
From the text: FIG. 13. Effects of doping del with 3% octyl-TMOS on release of lipids. Plots from top to bottom, respectively: Cholesterol-BDP, Chol/3% Octyl, Palmitate-NBD, and Palm/3% Octyl.
Fluorescent labeled cholesterol and palmytic acid were used to show both loading and release. Procyanidine is a potent antioxidant that is being evaluated for use in the treatment of osteoarthritis.
Effects of Doping Del with 3% Octyl-TMOS on Release of Lipids (FIG. 13)
3% octyl doped gel changed cholesterol release(from 80% released down to 55% released), but had no effect on palmitate release.

[5] = Curcumin release from particles into ethanol or methanol; format: physicochemical
From the text: FIG. 2. A comparison of release profiles form curcumin loaded nanoparticles. “Brinker” (Br) is the high-density sol-gel that took 7 days to gel and curcumin added after the gelation is complete. “9d dry” is the original formulation air dried for 9 days. Release is of suspended particles into ethanol or methanol. Plots from top to bottom, respectively: EtOH original, EtOH 9d dry, MeOH Brinker, and EtOH Brinker.
Release from Nanoparticles was Made Via: • the Br(Brinker) method where the curcumin is loaded into the empty Br sol-gel block (slow gelation protocol), • The original hydrogel platform where the curcumin is mixed in the initial pre-condensation mixture which gels much more rapidly than the Br sol-gels, • Curcumin loaded in the original fast gelling platform but the resulting curcumin containing sol-gel is air dried for nine days (to promote enhanced density-decreasing pore size.
The effect of added PEG400 on release rates of NACSNO (SNO derivative of N-acetylcysteine) and curcumin from nanoparticles generated using the new block gel protocol (Universal Drug Delivery Platform). • New protocol in which NACSNO and curcumin are infused into a gel block prepared from TMOS using the standard Brinker method for gelation. Once the gel is loaded with the deliverables, the gel is lyophilized and then milled to produce the loaded nanoparticles. • Four separate gels are prepared for each of the deliverables • One gel has no added PEG whereas the other three have varying amounts of added PEG400. The percentage of added PEG shown in the figures refers to the percentage of PEG added compared to what was added in our original protocol.

[6] = gel block doped with octyl group

Cc1cc(-c2ccc(/N=N/c3ccc4c(S(=O)(=O)O)cc(S(=O)(=O)O)c(N)c4c3O)c(C)c2)ccc1/N=N/c1ccc2c(S(=O)(=O)O)cc(S(=O)(=O)O)c(N)c2c1O [Evans Blue]
effect of increasing addition of base prior to condensation on release ([1]; Br sol-gels doped with APTS): increase in release | release from amine (APTS) doped particles [1]: slowed by several orders or magnitude; also recorded: substantially slows release | release from amine (APTS) doped particles ([1]; listed as Evans blue): slows | release from undoped particles ([1]; without amine doping, aqueous environment): immediate and complete; also recorded: near instantaneous

N[C@@H](CCC(=O)N[C@@H](CSN=O)C(=O)NCC(=O)O)C(=O)O [GSNO, S-nitrosothiol-GSH]
release from original rapid gelation platform [2]: rapid release | stability in original rapid gelation platform ([2]; prepared in original rapid gelation platform): unstable

CC(=O)N[C@@H](CSN=O)C(=O)O [NACSNO, S-nitrosoN-acetylcysteine]
release from original rapid gelation platform [2]: almost immediate release | effect of octyl group doping on release [2, 6]: slows release

COc1ccc2cc([C@H](C)C(=O)O)ccc2c1 [Naproxen]
release from new protocol nanoparticles [3]: slow release

CC(C)CCC[C@@H](C)[C@H]1CC[C@H]2[C@@H]3CC=C4C[C@@H](O)CC[C@]4(C)[C@H]3CC[C@]12C [cholesterol]
cholesterol release, released ([4]; 3% octyl doped gel): 55% | cholesterol release, released ([4]; gel without octyl doping (Br1)): 80%

COc1cc(/C=C/C(=O)CC(=O)/C=C/c2ccc(O)c(OC)c2)ccc1O [curcumin, Curcumin]
effect of increasing addition of base prior to condensation on release ([5]; Br sol-gels doped with APTS): increase in release | effect of octyl group doping on release [5, 6]: slows release | effect of APTS on release ([5]; slow gel, >1 day to form): increased | release compared to the original platform and its air dried version ([5]; slow gelling Br protocol, curcumin loaded after gelation): dramatic slow down in release | effect of increasing pH in condensation step on release ([5]; sol-gel doped with 25% PEG400, release in ethanol): increases release

CCCCCCCCCCCCCCCC(=O)O [palmitate]
effect of 3% octyl doping on release ([4]; 3% octyl doped gel vs undoped): no effect
